Test results as given in the supplement of paper PMC10307832.

Tests used:
Assay in all cases: relative viability (nuclei count vs DMSO), 5 days (fraction); higher = more cells survive
Imatinib + Luminespib = compound: Cc1ccc(NC(=O)c2ccc(CN3CCN(C)CC3)cc2)cc1Nc1nccc(-c2cccnc2)n1 [Imatinib] + CCNC(=O)c1noc(-c2cc(C(C)C)c(O)cc2O)c1-c1ccc(CN2CCOCC2)cc1 [Luminespib] (partner 0.01 µM)
In short: (§1)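 The day after seeding in 1536-well plates, lung cancer cell lines were treated by pin tool with a single drug, or with a fixed anchor-drug dose together with five library-drug doses (not always all listed) in √10 steps. After 5 days, a combined fix-and-stain solution (final 0.05% Triton X-100, 1% formaldehyde, 1 ug/ml Hoechst) was added. Nuclei counted on 4× images gave relative viability as treated counts over vehicle counts, reported as the median of duplicate plates.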

Imatinib + Pemetrexed = compound: Cc1ccc(NC(=O)c2ccc(CN3CCN(C)CC3)cc2)cc1Nc1nccc(-c2cccnc2)n1 [Imatinib] + Nc1nc2[nH]cc(CCc3ccc(C(=O)N[C@@H](CCC(=O)O)C(=O)O)cc3)c2c(=O)[nH]1 [Pemetrexed] (partner 0.2 µM)
In short: as §1

Imatinib + Bortezomib = compound: Cc1ccc(NC(=O)c2ccc(CN3CCN(C)CC3)cc2)cc1Nc1nccc(-c2cccnc2)n1 [Imatinib] + CC(C)C[C@H](NC(=O)[C@H](Cc1ccccc1)NC(=O)c1cnccn1)B(O)O [Bortezomib] (partner 0.002 µM)
In short: as §1

Imatinib = compound: Cc1ccc(NC(=O)c2ccc(CN3CCN(C)CC3)cc2)cc1Nc1nccc(-c2cccnc2)n1 [Imatinib]
In short: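 Five library-drug doses, separated by factors of √10, were pinned into 1536-well plates holding lung cancer cell lines after an overnight stay at 37 °C. Cells were fixed, permeabilised and Hoechst-stained in one step after 5 days without medium change, then imaged at 4×. Viability compares treated-well with vehicle-well nuclei, counted in MetaXpress, as a median across plates. Passing plates had control CV below 25% and at least one doubling.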

Row | Cell Line | relative viability (Imatinib + Luminespib; first compound 0.02 µM) | relative viability (Imatinib + Luminespib; first compound 0.06325 µM) | relative viability (Imatinib + Luminespib; first compound 0.2 µM) | relative viability (Imatinib + Luminespib; first compound 0.6325 µM) | relative viability (Imatinib + Luminespib; first compound 2 µM) | relative viability (Imatinib + Pemetrexed; first compound 0.02 µM) | relative viability (Imatinib + Pemetrexed; first compound 0.06325 µM) | relative viability (Imatinib + Pemetrexed; first compound 0.2 µM) | relative viability (Imatinib + Pemetrexed; first compound 0.6325 µM) | relative viability (Imatinib + Pemetrexed; first compound 2 µM) | relative viability (Imatinib + Bortezomib; first compound 0.02 µM) | relative viability (Imatinib + Bortezomib; first compound 0.06325 µM) | relative viability (Imatinib + Bortezomib; first compound 0.2 µM) | relative viability (Imatinib + Bortezomib; first compound 0.6325 µM) | relative viability (Imatinib + Bortezomib; first compound 2 µM) | relative viability (Imatinib; 0.02 µM) | relative viability (Imatinib; 0.2 µM) | relative viability (Imatinib; 0.6325 µM) | relative viability (Imatinib; 2 µM) | relative viability (Imatinib; 0.06325 µM)
1 | NCI-H3122 | 0.0854 | 0.0818 | 0.112 | 0.126 | 0.076 | 0.202 | 0.211 | 0.198 | 0.185 | 0.2 | 0.985 | 1.06 | 1.04 | 0.96 | 1.05 | 1.02 | 1.1 | 1.03 | 1.08 | 
2 | EMC-BAC-2 | 1.25 | 1.5 | 1.36 | 1.14 |  | 0.443 | 0.483 | 0.447 | 0.507 | 0.424 | 1.11 | 1.11 | 1.21 | 1.16 | 1.07 | 1.03 | 1.13 | 1.09 | 1.01 | 0.952
3 | HOP-62 | 1.06 | 0.84 | 1.03 | 0.886 |  | 0.302 |  | 0.356 | 0.29 | 0.317 | 1.14 |  | 1.19 | 0.732 | 0.598 | 1.15 | 1.2 | 0.999 | 0.943 | 
4 | NCI-H661 | 0.931 | 1.03 | 1.01 | 0.934 | 0.874 | 0.915 | 1.09 | 0.93 | 0.931 | 0.936 | 0.81 | 0.613 | 0.821 | 0.607 | 0.852 | 0.977 | 0.994 | 0.969 | 0.982 | 0.962
5 | NCI-H1993 | 0.949 | 0.745 | 0.885 | 0.608 | 0.854 | 0.581 | 0.44 | 0.501 | 0.616 | 0.582 |  |  | 0.954 | 1.11 | 1.02 | 0.89 | 1.08 | 0.886 | 0.925 | 0.8
6 | NCI-H647 | 0.198 | 0.121 | 0.134 | 0.119 | 0.146 | 0.18 | 0.183 | 0.192 | 0.202 | 0.158 | 1.11 | 1.11 | 1.73 | 1.02 | 0.872 | 0.976 | 1.12 | 0.991 | 0.962 | 1.05
7 | EPLC-272H | 0.312 |  | 0.456 | 0.306 | 0.14 | 0.261 |  |  | 0.328 | 0.336 | 0.98 |  | 1.15 | 1.06 | 1.06 | 1.16 | 0.884 | 1.07 | 0.87 | 
8 | NCI-H1915 | 1.1 |  | 0.694 | 0.637 | 0.766 | 0.536 |  | 0.516 | 0.461 | 0.572 | 1.04 |  |  |  |  | 1.09 | 1.02 | 1.03 | 0.967 | 
9 | CAL-12T | 0.365 |  | 0.363 | 0.397 | 0.198 | 1.35 | 1.33 | 1.25 | 1.32 | 1.28 | 1.07 | 1.1 | 0.927 | 0.968 | 1.02 | 1.04 | 1.13 | 1.05 | 0.943 | 0.865
